Results: US11421349B2, “Photoactivatable fibers and fabric media” (KLOX TECHNOLOGIES INC., priority 2014, dated 2022)

Assays:
Type in all cases: physicochemical
[1] = Effect of addition of a lubricant (lurol oil) on the fluorescence emitted from Eosin Y solution; conditions: 320 μL lurol oil added to 2 mL of 109 μg/g Eosin Y in water
Procedure: The fluorescence of these two solutions was measured to determine if the lurol oil had any effect (FIG. 4).

[2] = Qualitative analysis of dental fiber doping (fluorescence under blue lamp)
Description: Commercially available dental fibers were dipped into solutions of Eosin […], or 0.1 g/L) for 10 seconds. The fibers were taken out and observed for color, then put under a blue lamp and the fluorescence was observed qualitatively. […] Dental fibers were dipped into solutions of fluorescein (50 […]) for 10 seconds. The fibers were then taken out and observed for color, then put under a blue lamp and the fluorescence was observed qualitatively. […] Dental fibers were dipped into solutions of fluorescein:Eosin […] total chromophore) solution for 10 seconds again. The fibers were then taken out and observed for color, then put under a blue lamp and the fluorescence was observed qualitatively.

[3] = Effect of addition of a lubricant on the fluorescence emission of photoactivatable (doped) fibers; conditions: same concentration, lurol oil added, FIG. 5B
Description: In the case of low concentrations of chromophore it can slightly red shift, and reduces bleaching time considerably. In higher concentrations of chromophore it red shifts, as well as increase fluorescence. The most effect seems to be around 10 g/L of lurol oil. Initially the fluorescence of Eosin Y doped fibers was 0.01 (FIG. 5A), but with the lurol oil added the fluorescence is boosted to 0.7. A comparison was done of Eosin Y and Fluorescein at the same concentration with lurol oil added.

Row | photo-degradation compared with Eosin Y [3] | Compound | photodegradation of Eosin Y solution with lurol oil [1] | shift of the fluorescence of the solution with lurol oil [1] | fluorescence of Eosin Y solution with lurol oil versus without ([1]; FIG. 4) | fluorescence observed qualitatively under blue lamp ([2]; commercial dental fibers dipped 10 seconds, 300-100 g/L solutions) | fluorescence observed qualitatively under blue lamp ([2]; dental fibers dipped 10 seconds, 10 g/L solution) | fluorescence observed qualitatively under blue lamp ([2]; dental fibers dipped 10 seconds, 50 g/L solution)
1 | – | O=C([O-])c1ccccc1-c1c2cc(Br)c(=O)c(Br)c-2oc2c(Br)c([O-])c(Br)cc12.[Na+].[Na+] [Eosin Y, 2′,4′,5′,7′-tetrabromo-fluorescein, dianion] | barely photodegraded | red shifted | almost twice as fluorescent | little fluorescence | significant increase in fluorescence | showed fluorescence
2 | photo-degrades faster | O=C1OC2(c3ccc(O)cc3Oc3cc(O)ccc32)c2ccccc21 [fluorescein] | – | – | – | – | – | –
